Measurements as given in patent US20140073761A1, “CONJUGATES CONTAINING HYDROPHILIC SPACER LINKERS” (priority 2007, published 2014).
Where two headings read alike, the source gives them in different places. Marks after values point to notes of the source that are not given here. *1 amine or outer side, *2 acyl side, *3 side chain or, on linkers, in order; H or OH if unused. Where a SMILES comes first, the peptide text is derived from it. [ ]: non-standard residue; d: D form. The star is where a group is joined. X1 = CC[C@]1(O)C[C@H]2CN(CCc3c([nH]c4ccccc34)[C@@](C(=O)OC)(c3cc4c(cc3OC)N(C)[C@H]3[C@@](O)(C(=O)NNC(=O)OCCS*)[C@H](O)[C@]5(CC)C=CCN6CC[C@]43[C@@H]65)C2)C1; Nle(3R-OH,4S-OH,5R-OH,6-OH) = N[C@H](C(=O)O)[C@@H](O)[C@H](O)[C@H](O)CO; Pteroyl = Nc1nc2ncc(CNc3ccc(C(=O)*)cc3)nc2c(=O)[nH]1; γGlu = O=C(O)[C@H](CCC(=O)[*:2])N[*:1]

Key:
[1] = M109 tumors
Method: Toxicity as Measured by Weight Loss. The percentage weight change was determined in mice (5 mice/group) on selected days post-tumor inoculation (PTI), compared to controls, and graphed.

in vivo = assay: in vivo; design: species or system mice; conditions: for MTD: mouse, in vivo, read-out: Single Dose MTDapp
[2] = test system: folate receptor-positive KB cells; format: cell-based; conditions: excess folic acid
Method: Inhibition of Cellular DNA Synthesis. The compounds described herein were evaluated using an in vitro cytotoxicity assay that predicts the ability of the drug to inhibit the growth of folate receptor-positive KB cells. The compounds were comprised of folate linked to a respective chemotherapeutic drug, as prepared according to the protocols described herein. […] The cells were then rinsed once with fresh culture medium and incubated in fresh culture medium for 72 hours at 37° C. Cell viability was assessed using a ^3H-thymidine incorporation assay.
(§1) In Vitro Concentration-Dependent Cytotoxic Activity. Cells were heavily seeded in 24-well Falcon plates and allowed to form nearly confluent monolayers overnight. Thirty minutes prior to the addition of test article, spent medium was aspirated from all wells and replaced with fresh folate-free RPMI (FFRPMI). […] Treated cells were pulsed for 2 h at 37° C., rinsed 4 times with 0.5 mL of media, and then chased in 1 mL of fresh media up to 70 h. Spent media was aspirated from all wells and replaced with fresh media containing 5 μCi/mL ^3H-thymidine. Following a further 2 h 37° C. incubation, cells were washed 3 times with 0.5 mL of PBS and then treated with 0.5 mL of ice-cold 5% trichloroacetic acid per well. After 15 min, the trichloroacetic acid was aspirated and the cell material solubilized by the addition of 0.5 mL of 0.25 N sodium hydroxide for 15 min. Four hundred and fifty μL of each solubilized sample were transferred to scintillation vials containing 3 mL of Ecolume scintillation cocktail and then counted in a liquid scintillation counter. Final tabulated results were expressed as the percentage of ^3H-thymidine incorporation relative to untreated controls.
(§2) As shown in the figures herein, dose-dependent cytotoxicity was measurable, and in most cases, the IC50 values (concentration of drug conjugate required to reduce ^3H-thymidine incorporation into newly synthesized DNA by 50%) were in the low nanomolar range. […] The following table illustrated data for selected compounds against KB cells and against RAW264.7 cells

[3] = rat, in vivo
Excerpt: Comparison of Bile Clearance (% ID) of unconjugated drug, drug conjugate lacking a hydrophilic spacer linker, and conjugates described herein.

RAW264.7 cells = format: cell-based; conditions: for RAW264.7 Cells Competable with xs folate: excess folic acid
Method: as §1, §2

[4] = Cell viability, XTT, 5 h pulse/72 h chase (FIG. 16); format: cell-based
20S proteosome = assay: Inhibition of LPS stimulated proteosome activity in RAW 264.7 cells (FIG. 18); format: cell-based; conditions: 5 h pulse/24 h chase, LPS 100 ng/mL
[5] = mice, single dose, EC0234 dose limited by solubility

Question: Which “gross toxicity (percentage body weight change)” value ([1]; FIG. 3B, TIW 3 μmol/kg, 3 wks) does the source give for `CC[C@]1(O)C[C@H]2CN(CCc3c([nH]c4ccccc34)[C@@](C(=O)OC)(c3cc4c(cc3OC)N(C)[C@H]3[C@@](O)(C(=O)NNC(=O)OCCSSC[C@H](NC(=O)[C@@H](NC(=O)CC[C@H](NC(=O)c5ccc(NCc6cnc7nc(N)[nH]c(=O)c7n6)cc5)C(=O)O)[C@@H](O)[C@H](O)[C@H](O)CO)C(=O)O)[C@H](O)[C@]5(CC)C=CCN6CC[C@]43[C@@H]65)C2)C1` [EC0234, Mono-Saccharo-Folate Vinblastine Conjugate] here?
Answer: no gross toxicity was observed

Question: What about the MTD (in vivo; [5]) of the same molecule?
Answer: 12 µmol/kg

Question: Which results are given for `CC[C@]1(O)C[C@H]2CN(CCc3c([nH]c4ccccc34)[C@@](C(=O)OC)(c3cc4c(cc3OC)N(C)[C@H]3[C@@](O)(C(=O)NNC(=O)OCCSSC[C@H](NC(=O)[C@@H](NC(=O)[C@H](CC(=O)O)NC(=O)[C@@H](NC(=O)CC[C@H](NC(=O)c5ccc(NCc6cnc7nc(N)[nH]c(=O)c7n6)cc5)C(=O)O)[C@@H](O)[C@H](O)[C@H](O)CO)[C@@H](O)[C@H](O)[C@H](O)CO)C(=O)O)[C@H](O)[C@]5(CC)C=CCN6CC[C@]43[C@@H]65)C2)C1` [EC0246, Bis-Saccharo-Folate Vinblastine Conjugate]?
Answer: gross toxicity (percentage body weight change) ([1]; FIG. 3B, TIW 3 μmol/kg, 3 wks): no gross toxicity was observed; mice died (in vivo; at 20 μmol/kg single dose): **⅓ mice died at 20 μmol/kg.; Single Dose MTDapp (in vivo; [5]): <20** μmol/kg

Question: With `CC[C@]1(O)C[C@H]2CN(CCc3c([nH]c4ccccc34)[C@@](C(=O)OC)(c3cc4c(cc3OC)N(C)[C@H]3[C@@](O)(C(=O)NNC(=O)OCCSSC[C@H](NC(=O)[C@@H](NC(=O)[C@@H](NC(=O)[C@H](CC(=O)O)NC(=O)[C@@H](NC(=O)CC[C@H](NC(=O)c5ccc(NCc6cnc7nc(N)[nH]c(=O)c7n6)cc5)C(=O)O)[C@@H](O)[C@H](O)[C@H](O)CO)[C@@H](O)[C@H](O)[C@H](O)CO)[C@@H](O)[C@H](O)[C@H](O)CO)C(=O)O)[C@H](O)[C@]5(CC)C=CCN6CC[C@]43[C@@H]65)C2)C1` [EC0258, Tris-Saccharo-Asp-Folate Vinblastine Conjugate] as the molecule, how does the “KB Cells Competable with xs folate” value [2] read?
Answer: Yes

Question: What about the “Bile clearance (% ID)” value [3] of the same molecule?
Answer: 3.2 % ID

Question: For `COc1ccc(C[C@H]2NC(=O)/C=C/C[C@@H]([C@H](C)[C@@H](OC(=O)OCCSSC[C@H](NC(=O)[C@@H](NC(=O)[C@H](CC(=O)O)NC(=O)[C@@H](NC(=O)[C@H](CC(=O)O)NC(=O)[C@@H](NC(=O)CC[C@H](NC(=O)c3ccc(NCc4cnc5nc(N)[nH]c(=O)c5n4)cc3)C(=O)O)[C@@H](O)[C@H](O)[C@H](O)CO)[C@@H](O)[C@H](O)[C@H](O)CO)[C@@H](O)[C@H](O)[C@H](O)CO)C(=O)O)[C@@H](Cl)c3ccccc3)OC(=O)[C@H](CC(C)C)OC(=O)C(C)(C)CNC2=O)cc1Cl` [EC0262], which “KB Cells Competable with xs folate” value [2] is on record?
Answer: Yes

Question: Which MTD (in vivo; [5]) does the source give for `CC[C@]1(O)C[C@H]2CN(CCc3c([nH]c4ccccc34)[C@@](C(=O)OC)(c3cc4c(cc3OC)N(C)[C@H]3[C@@](O)(C(=O)NNC(=O)OCCSSC[C@H](NC(=O)[C@@H](NC(=O)[C@H](CC(=O)O)NC(=O)[C@@H](NC(=O)[C@H](CC(=O)O)NC(=O)[C@@H](NC(=O)CC[C@H](NC(=O)c5ccc(NCc6cnc7nc(N)[nH]c(=O)c7n6)cc5)C(=O)O)[C@@H](O)[C@H](O)[C@H](O)CO)[C@@H](O)[C@H](O)[C@H](O)CO)[C@@H](O)[C@H](O)[C@H](O)CO)C(=O)O)[C@H](O)[C@]5(CC)C=CCN6CC[C@]43[C@@H]65)C2)C1` [EC0263, Tris-Saccharo-Bis-Asp-Folate Vinblastine Conjugate] here?
Answer: > 20 µmol/kg

Question: Which “KB Cells Competable with xs folate” value [2] does the source give for `CC[C@]1(O)C[C@H]2CN(CCc3c([nH]c4ccccc34)[C@@](C(=O)OC)(c3cc4c(cc3OC)N(C)[C@H]3[C@@](O)(C(=O)NNC(=O)OCCSSC[C@H](NC(=O)CCOCCOCCOCCOCCOCCOCCOCCOCCOCCOCCOCCOCCNC(=O)CC[C@H](NC(=O)c5ccc(NCc6cnc7nc(N)nc(O)c7n6)cc5)C(=O)O)C(=O)O)[C@H](O)[C@]5(CC)C=CCN6CC[C@]43[C@@H]65)C2)C1` [EC0409] here?
Answer: Yes

Question: And the “Bile clearance (% ID)” value [3]?
Answer: 7.9 % ID

Question: With `CC[C@]1(O)C[C@H]2CN(CCc3c([nH]c4ccccc34)[C@@](C(=O)OC)(c3cc4c(cc3OC)N(C)[C@H]3[C@@](O)(C(=O)NNC(=O)OCCSSC[C@H](NC(=O)[C@@H](NC(=O)[C@H](CC(=O)O)NC(=O)[C@@H](NC(=O)[C@H](CC(=O)O)NC(=O)[C@@H](NC(=O)[C@H](CC(=O)O)NC(=O)[C@@H](NC(=O)CC[C@H](NC(=O)c5ccc(NCc6cnc7nc(N)[nH]c(=O)c7n6)cc5)C(=O)O)[C@@H](O)[C@H](O)[C@H](O)CO)[C@@H](O)[C@H](O)[C@H](O)CO)[C@@H](O)[C@H](O)[C@H](O)CO)[C@@H](O)[C@H](O)[C@H](O)CO)C(=O)O)[C@H](O)[C@]5(CC)C=CCN6CC[C@]43[C@@H]65)C2)C1` [EC0434, Tetra-Saccharo-Tris-Asp-Folate Vinblastine Conjugate] ({Pteroyl-γGlu}-[Nle(3R-OH,4S-OH,5R-OH,6-OH)]D[Nle(3R-OH,4S-OH,5R-OH,6-OH)]D[Nle(3R-OH,4S-OH,5R-OH,6-OH)]D[Nle(3R-OH,4S-OH,5R-OH,6-OH)]C(X1)-OH) as the molecule, how does the “gross toxicity (percentage body weight change)” value ([1]; FIG. 6B, 7B, 8B, Balb/c mice, 2 μmol/kg TIW two weeks) read?
Answer: no gross toxicity was observed

Question: What about the “percent of total dose in the bile (total DAVLBH biliary excretion)” value ([3]; iv) of the same molecule?
Answer: 2.8%

Question: For `CC(C)C[C@H](NC(=O)[C@H](Cc1ccccc1)NC(=O)c1cnc(CSSC[C@H](NC(=O)[C@H](CCC(=O)NC[C@H](O)[C@@H](O)[C@H](O)[C@H](O)CO)NC(=O)[C@H](CCC(=O)O)NC(=O)[C@H](CCC(=O)NC[C@H](O)[C@@H](O)[C@H](O)[C@H](O)CO)NC(=O)[C@H](CCC(=O)O)NC(=O)[C@H](CCC(=O)NC[C@H](O)[C@@H](O)[C@H](O)[C@H](O)CO)NC(=O)CC[C@H](NC(=O)c2ccc(NCc3cnc4nc(N)[nH]c(=O)c4n3)cc2)C(=O)O)C(=O)O)cn1)B(O)O` [EC0525], which “RAW264.7 Cells Competable with xs folate” value (RAW264.7 cells) is on record?
Answer: Yes

Question: And the IC50 [4]?
Answer: 0.046 µM

Question: And the IC50 (20S proteosome)?
Answer: ~0.03 µM

Question: For `CCC(C)[C@H](NC(=O)[C@H]1CCCCN1C)C(=O)N(COC(=O)CC(C)C)[C@H](C[C@@H](OC(C)=O)c1nc(C(=O)N[C@@H](Cc2ccc(O)cc2)C[C@H](C)C(=O)NNC(=O)OCSSC[C@H](NC(=O)[C@H](CCC(=O)NC[C@H](O)[C@@H](O)[C@H](O)[C@H](O)CO)NC(=O)[C@H](CCC(=O)O)NC(=O)[C@H](CCC(=O)NC[C@H](O)[C@@H](O)[C@H](O)[C@H](O)CO)NC(=O)[C@H](CCC(=O)O)NC(=O)[C@H](CCC(=O)NC[C@H](O)[C@@H](O)[C@H](O)[C@H](O)CO)NC(=O)CC[C@H](NC(=O)c2ccc(NCc3cnc4nc(N)[nH]c(=O)c4n3)cc2)C(=O)O)C(=O)O)cs1)C(C)C` (stereo partly shown) [EC0543], which “KB Cells Competable with xs folate” value [2] is on record?
Answer: Yes

Question: For `CC(=O)O[C@H]1C(=O)[C@@]2(C)[C@H]([C@H](OC(=O)c3ccccc3)[C@]3(O)C[C@H](OC(=O)[C@H](OC(=O)COc4ccc(C(=O)NNC(=O)OCCSSC[C@H](NC(=O)[C@H](CCC(=O)NC[C@H](O)[C@@H](O)[C@H](O)[C@H](O)CO)NC(=O)[C@H](CCC(=O)O)NC(=O)[C@H](CCC(=O)NC[C@H](O)[C@@H](O)[C@H](O)[C@H](O)CO)NC(=O)[C@H](CCC(=O)O)NC(=O)[C@H](CCC(=O)NC[C@H](O)[C@@H](O)[C@H](O)[C@H](O)CO)NC(=O)CC[C@H](NC(=O)c5ccc(NCc6cnc7nc(N)[nH]c(=O)c7n6)cc5)C(=O)O)C(=O)O)cc4)[C@@H](NC(=O)c4ccccc4)c4ccccc4)C(C)=C1C3(C)C)[C@]1(OC(C)=O)CO[C@@H]1C[C@@H]2O` [EC0561], which “KB Cells Competable with xs folate” value [2] is on record?
Answer: Yes

Question: Which IC50 (RAW264.7 cells) does the source give for `CC(C)C[C@H](NC(=O)[C@H](Cc1ccccc1)NC(=O)c1cnc(CSSC[C@H](NC(=O)[C@H](CCC(=O)NC[C@H](O)[C@@H](O)[C@H](O)[C@H](O)CO)NC(=O)[C@H](CCC(=O)O)NC(=O)[C@H](CSSCc2cnc(C(=O)N[C@@H](Cc3ccccc3)C(=O)N[C@@H](CC(C)C)B(O)O)cn2)NC(=O)[C@H](CCC(=O)NC[C@H](O)[C@@H](O)[C@H](O)[C@H](O)CO)NC(=O)[C@H](CCC(=O)O)NC(=O)[C@H](CCC(=O)NC[C@H](O)[C@@H](O)[C@H](O)[C@H](O)CO)NC(=O)CC[C@H](NC(=O)c2ccc(NCc3cnc4nc(N)[nH]c(=O)c4n3)cc2)C(=O)O)C(=O)O)cn1)B(O)O` [EC0595] here?
Answer: 0.004 µM

Question: And the “RAW264.7 Cells Competable with xs folate” value (RAW264.7 cells)?
Answer: Yes

Question: What about the IC50 [4] of the same molecule?
Answer: 0.013 µM

Question: And the IC50 (20S proteosome)?
Answer: ~0.03 µM
